Structures are written as SMILES. Like-named read-outs stand apart in the source and are kept apart here.

The target in series [1] is T1, D3 receptor (Homo sapiens, UniProt P35462).
T1 construct: expressed in transfected cells
In words: cAMP content in cells stably expressing D3 receptors (CHO-D3, forskolin, HTRF). In kind it is cell-based. As to the method: Determination of the effect of the compounds of the present invention on cAMP content in cells stably expressing D3 receptors
To determine the activation effect of the compounds on D3 receptor.
• 1. Preparation of the buffer: 1* HBSS + 20mM HEPES + 0.1% BSA + 500 µM IBMX. Complete medium: Ham's F12K + 10% fetal bovine serum +1* penicillin-streptomycin + 400 µg/mL G418. • 2. CHO-D3 cells were cultured in the complete medium at 37°C, 5% CO2. After TrypLE digestion, the cells were resuspended in the experimental buffer, and seeded into a 384-well cell culture plate at a seeding density of 8000 cells per well. • 3. The experimental buffer (1*HBSS, 0.1% BSA, 20 mM HEPES and 500 µM IBMX) was prepared. The compound was diluted with the buffer. 2.5 µL of the compound solution was added to each well, and the plate was incubated at 37°C for 10 minutes. The forskolin was diluted to 8 µM (8*) with the experimental buffer. 2.5 µL of the diluted 8* forskolin was added, and the plate was incubated at 37°C for 30 minutes. cAMP-d2 and Anti-cAMP-Eu^3+ were thawed, and diluted by 20-fold with the lysis buffer. 10 µL of cAMP-d2 was added to the experimental well, followed by the addition of 10 µL of Anti-cAMP-Eu^3+. The reaction plate was centrifuged at 200 g for 30 s at room temperature, and left to stand at 25°C for 1 h. Data was collected using Envision.
A general note: In TR-FRET formats the signal depends on donor and acceptor labels being close together.

The target of series [2] is T2, dopamine D3 receptor (Homo sapiens, UniProt P35462).
T2 construct: purchased PerkinElmer ES-173-M400UA
T2 sequence (P35462 whole entry): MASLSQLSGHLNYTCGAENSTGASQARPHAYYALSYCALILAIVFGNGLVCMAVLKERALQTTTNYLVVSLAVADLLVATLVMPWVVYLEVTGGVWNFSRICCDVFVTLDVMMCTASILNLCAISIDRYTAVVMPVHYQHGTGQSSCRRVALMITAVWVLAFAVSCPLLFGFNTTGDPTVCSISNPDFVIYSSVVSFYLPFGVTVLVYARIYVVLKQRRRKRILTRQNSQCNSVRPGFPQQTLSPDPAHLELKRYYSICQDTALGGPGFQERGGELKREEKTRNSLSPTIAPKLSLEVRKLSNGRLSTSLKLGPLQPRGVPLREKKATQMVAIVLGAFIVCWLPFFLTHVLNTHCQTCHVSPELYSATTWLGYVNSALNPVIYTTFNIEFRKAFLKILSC
In words: Radioligand binding assay, dopamine D3 receptor ([3H]-methylspiperone). The following applies: Human Dopamine D3 Receptor membrane, [3H]-methylspiperone 0.5 nM. On the procedure:
Determination of the binding ability of the compounds of the present invention to dopamine D3 receptor
The objective of this test example is to determine the affinity of the compounds for dopamine D3 receptor.
Experimental buffer: 50 mM Tris-HCl pH 7.4, 10 mm MgCl2; washing liquor: 50 mM Tris-HCl pH 7.4, stored at 4°C; 0.5% PEI solution: 0.5 g PEI dissolved in 100 mL ddH2O, 4°C storage of spare.
(§1) 5 µL of the test compounds (0.005 nM to 100 nM, 10 concentrations in total) and 100 µL of buffer were added to a 96-well assay plate. 1 µL of cell membrane and 300 µL of buffer were added to each well, and the plate was shaken at 600 rpm for 5 minutes. 100 µL of a mixed solution of buffer and [^3H]-methylspiperone (final concentration of 0.5 nM) was added to the reaction system per well, and the plate was shaken at 600 rpm for 5 minutes and incubated at 27°C for 30 min. The UNIFII,TER-96 GF/B filter plate pre-incubated with 0.5% PEI for 1 h was washed twice with the buffer (1 mL/well). The cell membrane suspension was added to the […]-96 GF/B filter plate, washed 4 times, and incubated at 55°C for 10 min. 40 µL of ULTIMA GOLD was added to each well, and liquid scintillation counting was carried out.
(§2) The CPM (Counts per minute) values were determined by TopCount. […] The 10 concentrations of the compound were from 100 nM to 0.005 nM after 3-fold dilution of the reaction system. The percent inhibition rate and ten-point concentration data were fitted to the parametric nonlinear logistic equation by using GraphPad prism to calculate the IC50 values of the compound.

Series [3] has as its target T3, 5-HT2A receptor (Homo sapiens, UniProt P28223). Put plainly: Radioligand binding assay, 5-HT2A receptor ([3H]-Ketanserin). On the set-up: purchased PerkinElmer. The following applies: Human 5-HT2A Receptor membrane, [3H]-Ketanserin 2 nM; read-out: 5HT-2A Binding IC50. On the procedure:
Determination of the binding ability of the compounds of the
present invention to 5-HT2A receptor
The objective of this test example is to determine the affinity of the compounds for 5-HT2A receptor.
Experimental buffer: 50 mM Tris-HCl pH 7.4, 4 mM CaCl2; washing liquor: 50 mM Tris-HCl pH 7.4, stored at 4°C; 0.5% PEI solution: 0.5 g PEI dissolved in 100 mL ddH2O, 4°C storage of spare.
as §1, with “plate. 1.5” for “plate. 1”, “and [^3H]-Ketanserin” for “and [^3H]-methylspiperone”, “of 2” for “of 0.5”, “The […]-96” for “The UNIFII,TER-96”
as §2

The target in series [4] is T3, 5-HT2A receptor. In words: Calcium ion mobility in cells stably expressing 5-HT2A receptors (Flp-In-CHO-5HT2A, FLIPR). Type of series: cell-based. The following applies: Flp-In-CHO-5HT2A stable pool, 5HT stimulation. On the set-up: expressed in transfected cells. As to the method:
Determination of the effect of the compounds of the present invention on calcium ion mobility in cells stably expressing 5-HT2A receptors
To determine the inhibitory effect of the compounds on 5-HT2A receptor.
• 1) Preparation of the buffer: 1 x HBSS, 20 mM HEPES, 2.5 mM probenecid (probenecid was 400 mM stock in 1 M NaOH), 0.1% BSA. Probenecid and BSA were added fresh on the day of the experiment. Experimental buffers include dye buffer and compound dilution buffer. • 2) Cell culture medium: Ham's F-12K + 10% fetal bovine serum + 600 µg/ml hygromycin B + 1* penicillin-streptomycin. Seeding medium: Ham's F-12K + 10% dialysis serum; Assay buffer: 1 x HBSS + 20 mM HEPES; Cell line: Flp-In-CHO-5HT2A stable pool. • 3) The cells were cultured in the complete medium at 37°C, 5% CO2 to 70%-90% confluency. The cells were digested with TrypLE, seeded to the 384-well assay plate at a density of 1 × 10^4 cells/well, and incubated for 16 to 24 hours (at least overnight). • 4) 20X Component A was thawed to room temperature, diluted to 2X working concentration (containing 5mM Probenecid) with the assay buffer, and placed at room temperature for later use. • 5) The cell culture plate was taken out and left to stand at room temperature for 10 min. […] 10 µl of diluted 5HT was add to each experimental well using FLIPR Tetra, and the values were read.
The calcium signal values were determined by FLIPR. The calculated output for each sampling time point in the experiment was the ratio of the 340/510 nm wavelength signals to 380/510 nm wavelength signals. The maximum minus minimum calculation was derived from the ratio signal curve. The percent inhibition rate and ten-point concentration data were fitted to the parametric nonlinear logistic equation by using GraphPad prism to calculate the IC50 values of the compound.

Series [5] can be described thus: Pharmacokinetic assay in Balb/c mice (plasma and brain tissue). In kind it is in vivo. The following applies: male, mouse, po, p.o. 5 mg/kg; for AUC(0-t): read-out: Area under curve AUC0-t; for AUC(0-inf): read-out: Area under curve AUC0-∞; for Tmax: read-out: Peak time tmax; for Cmax: read-out: Plasma concentration Cmax; for MRT: read-out: Average residence time MRT; for half-life: read-out: Half life t1/2 (converted). On the procedure: Balb/c mice were used as test animals. The pharmacokinetic behavior in mouse body (plasma and brain tissue) of the compounds of Examples of the present invention was studied at an oral administration dose of 5 mg/kg.
Compounds of the Examples of the present invention, prepared by the applicant.
Male Balb/c mice (12 mice per group), purchased from Shanghai Jiesijie Laboratory Animal Co., LTD, with Certificate No.: SCXK (Shanghai) 2013-0006 N0.311620400001794.
The test compound was dissolved in 0.5% CMC-Na (1% Tween80) by sonication to formulate a clear solution or homogeneous suspension.
After an overnight fast, male Balb/c mice (12 mice per group) were administered p.o. with the test compound at an administration dose of 5 mg/kg and an administration volume of 10 mL/kg.
0.2 mL of blood was taken from the heart of the mouse before administration and at 1, 2, 4, 8 and 24 hours after administration, and the mice were sacrificed with CO2. The samples were stored in EDTA-K2 tubes, and centrifuged for 6 minutes at 4°C, 6000 rpm to separate the plasma. The plasma samples were stored at -80°C. Whole brain tissue was taken out, weighed, placed in a 2 mL centrifuge tube, and stored at -80°C.
• 1) 160 µL of acetonitrile was added to 40 µL of the plasma sample for precipitation, and then the mixture was centrifuged for 5 to 20 minutes at 3500 × g. • 2) 90 µL of acetonitrile containing internal standard (100 ng/mL) was added to 30 µL of the plasma and brain homogenate sample for precipitation, and then the mixture was centrifuged for 8 minutes at 13000 rpm. • 3) 70 µL of water was added to 70 µL of the treated supernatant and mixed by vortex for 10 minutes. 20 µL of the supernatant was taken to analyze the concentration of the test compound by LC/MS/MS. LC/MS/MS analytical instrument: AB Sciex API 4000 Qtrap.
• Liquid chromatography condition: Shimadzu LC-20AD pump • Chromatographic column: Agilent ZORBAX XDB-C18 (50×2.1 mm, 3.5 µm); Mobile phase: Eluent A was 0.1% formic acid in water, and Eluent B was acetonitrile • Flow rate: 0.4 mL/min • Elution time: 0-4.0 minutes, the eluent is as follows:
The main parameters of pharmacokinetics were calculated by WinNonlin 6.1. Table 17: Experimental results of pharmacokinetic assay in mice

T3 sequence (P28223 whole entry): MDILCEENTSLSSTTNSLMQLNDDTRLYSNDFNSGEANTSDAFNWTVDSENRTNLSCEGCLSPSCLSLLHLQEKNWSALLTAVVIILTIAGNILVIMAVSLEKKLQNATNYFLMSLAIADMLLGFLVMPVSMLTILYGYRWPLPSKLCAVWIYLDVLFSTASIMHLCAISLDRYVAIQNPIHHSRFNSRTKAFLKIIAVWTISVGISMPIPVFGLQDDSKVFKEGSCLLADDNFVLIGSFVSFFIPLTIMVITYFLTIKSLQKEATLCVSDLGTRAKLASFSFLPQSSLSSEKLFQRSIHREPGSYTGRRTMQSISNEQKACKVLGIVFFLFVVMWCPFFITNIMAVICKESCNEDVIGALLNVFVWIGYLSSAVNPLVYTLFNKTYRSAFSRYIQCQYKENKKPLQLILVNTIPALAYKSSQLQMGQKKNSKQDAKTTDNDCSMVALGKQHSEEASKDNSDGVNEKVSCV
T1 sequence (P35462 whole entry): as the sequence (P35462 whole entry) above

As usually defined, the EC50 is the concentration that produces a half-maximal response. Read a low EC50 as greater potency. One may read the IC50 as the concentration needed to halve the response being measured. Take `O=C(N[C@H]1C[C@H](CCN2CCN(c3cccc(Cl)c3Cl)CC2)C1)c1ccon1` [Example 17A, N-(Trans-3-(2-(4-(2,3-dichlorophenyl)piperazin-1-yl)ethyl)cyclobutyl)isoxazole-3-ca rboxamide]: the 50% effective concentration (EC50) in series [1] was found to be 1.1 nM. Also, the IC50 in series [2] is 0.3 nM; in series [3] it was 1.92 nM; in series [4], 20.8 nM.

For the compound `O=S(=O)(NC1CC(CCN2CCN(c3cccc(Cl)c3Cl)CC2)C1)C1CC1` (stereo not shown) [Example 11, N-(3-(2-(4-(2,3-Dichlorophenyl)piperazin-1-yl)ethyl)cyclobutyl)cyclopropanesulfon amide], the IC50 in series [2] is 0.62 nM; in series [3], 44 nM.

The term Tmax denotes the time from dosing to the highest level. By MRT is commonly meant the average time that molecules of a dose stay in the body. For `O=C(NC1CC(CCN2CCCN(c3cccc(Cl)c3Cl)CC2)C1)c1ccco1` (stereo not shown) [Example 25, N-(3-(2-(4-(2,3-Dichlorophenyl)-1,4-diazepan-1-yl)ethyl)cyclobutyl)furan-2-carbox amide], in series [5] (Brain), the AUC(0-t) came out at 1540 ng·h/mL, the AUC(0-inf) came out at 1650 ng·h/mL, the Tmax came to 1 h and the Cmax worked out at 162 ng/mL. In series [5] (Plasma), the AUC(0-t) came out at 240 ng·h/mL, the AUC(0-inf) worked out at 297 ng·h/mL, the mean residence time (MRT) was 5.1 h and the half-life was 3.25 h. Also, in series [5] (Plasma), the Tmax worked out at 1 h and the Cmax was determined as 49.7 ng/mL. The compound further had an IC50 in series [2] of 0.79 nM. In addition, in series [3], the IC50 worked out at 6.35 nM.

For `O=C(N[C@H]1C[C@@H](CCN2CCN(c3cccc(Cl)c3Cl)CC2)C1)C1(O)CC1` [Example 6B, N-(Cis-3-(2-(4-(2,3-dichlorophenyl)piperazin-1-yl)ethyl)cyclobutyl)-1-hydroxycyclo propane-1-carboxamide], in series [5] (Brain), the AUC(0-t) was determined as 900 ng·h/mL, the time of peak concentration (Tmax) stood at 1 h and the Cmax stood at 361 ng/mL. Further, in series [5] (Plasma), the AUC(0-t) came to 2250 ng·h/mL, the AUC(0-inf) came to 2320 ng·h/mL, the MRT was 2.3 h and the half-life was 1.6 h. Also, in series [5] (Plasma), the Tmax worked out at 0.5 h and the Cmax stood at 961 ng/mL. For the same compound, the IC50 in series [2] came to 4.37 nM. The IC50 in series [3] stood at 48.4 nM. For the same compound, the half-maximal inhibitory concentration (IC50) in series [4] was found to be 39 nM.

For `CCN(C)C(=O)NC1CC(CCN2CCN(c3cccc4sccc34)CC2)C1` (stereo not shown) [Example 24, 3-(3-(2-(4-(Benzo[b]thiophen-4-yl)piperazin-1-yl)ethyl)cyclobutyl)-1-ethyl-1-methy lurea], in series [5] (Brain), the AUC(0-t) came out at 2190 ng·h/mL, the AUC(0-inf) was 2310 ng·h/mL, the Tmax stood at 1 h and the Cmax is 339 ng/mL. In series [5] (Plasma), the AUC(0-t) was found to be 1480 ng·h/mL, the AUC(0-inf) amounted to 2000 ng·h/mL, the mean residence time MRT was determined as 5.7 h and the half-life is 3.4 h. In series [5] (Plasma), the time to peak (Tmax) is 0.5 h and the Cmax amounted to 369 ng/mL. The same compound came in with an EC50 in series [1] of 0.9 nM. Moreover, in series [2], the concentration for half-maximal inhibition (IC50) came out at 1.13 nM. Moreover, the 50% inhibitory concentration (IC50) in series [3] turned out to be 6.39 nM.

`C[C@@H]1CN(CCC2CC(NC(=O)C(C)(C)O)C2)CCN1c1cccc(Cl)c1Cl` (stereo partly drawn) [Example 22, (R)-N-(3-(2-(4-(2,3-Dichlorophenyl)-3-methylpiperazin-1-yl)ethyl)cyclobutyl)-2-hy droxy-2-methylpropanamide] returned an EC50 in series [1] of 0.4 nM. Moreover, the figures for the IC50 in series [2] and in series [3] were 2.78 nM and 9.63 nM, respectively.

The record behind these values is patent publication EP4332093A1, “SALT CONTAINING PIPERAZINE POLYCYCLIC DERIVATIVE, CRYSTAL FORM THEREOF, PREPARATION METHOD THEREFOR, AND USE THEREOF” (Shanghai Hansoh Biomedical Co., Ltd., priority 2021, dated 2022).
